The values that follow come from PubChem BioAssay AID180 (DTP/NCI, 2004).

Several values for one entry are separate records, joined by “and”; a condition that tells them apart may be missing. Identical values can stand only once.

The test system of this experiment is BDF1 mice, Adenocarcinoma 755 s.c., tumor weight T/C. The experiment is described as follows: NCI In Vivo Anticancer Drug Screen. Data for tumor model Adenocarcinoma 755 (subcutaneous) in B6D2F1 (BDF1) mice. To be noted: endpoint: mean tumor weight, higher = larger tumour. The method, boiled down:
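Tumor-bearing mice receive test compound while controls get vehicle alone. Antitumor effect is scored from survival or tumor dimensions as a T/C quotient.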

[1] abbreviates: dose: 75.0 mg/kg/injection, schedule: Q01DX011 (ip), vehicle: methylcellulose (MC).

In general, T/C refers to the result in the treated group divided by that in the control group, in per cent. Turning to `Cc1ccc2c(c1)Sc1ccc3ccccc3c1N2`, the T/C reads like this: (dose: 12.5 mg/kg/injection, schedule: Q01DX011 (ip), vehicle: carboxymethylcellulose (CMC)) 57 % of control; (dose: 15.0 mg/kg/injection, schedule: Q01DX011 (ip), vehicle: saline) 94 % of control; (dose: 22.0 mg/kg/injection, schedule: Q01DX011 (ip), vehicle: saline) 42 % of control; (dose: 25.0 mg/kg/injection, schedule: Q01DX011 (ip), vehicle: carboxymethylcellulose (CMC)) 27 % of control; (dose: 33.0 mg/kg/injection, schedule: Q01DX011 (ip), vehicle: saline) 36 % of control; (dose: 50.0 mg/kg/injection, schedule: Q01DX011 (ip), vehicle: carboxymethylcellulose (CMC)) 26 % of control and 42 % of control. Also, the T/C was 26 % of control and 51 % of control (dose: 50.0 mg/kg/injection, schedule: Q01DX011 (ip), vehicle: saline); 58 % of control (dose: 62.5 mg/kg/injection, schedule: Q01DX011 (ip), vehicle: carboxymethylcellulose (CMC)); 37 % of control (dose: 75.0 mg/kg/injection, schedule: Q01DX011 (ip), vehicle: carboxymethylcellulose (CMC)); 28 % of control (dose: 75.0 mg/kg/injection, schedule: Q01DX011 (ip), vehicle: saline); 43 % of control (dose: 112.0 mg/kg/injection, schedule: Q01DX011 (ip), vehicle: carboxymethylcellulose (CMC)); 14 % of control (dose: 112.0 mg/kg/injection, schedule: Q01DX011 (ip), vehicle: saline). Moreover, the T/C is 18 % of control and 22 % of control (dose: 168.0 mg/kg/injection, schedule: Q01DX011 (ip), vehicle: carboxymethylcellulose (CMC)); 14 % of control (dose: 168.0 mg/kg/injection, schedule: Q01DX011 (ip), vehicle: saline); 10 % of control (dose: 335.0 mg/kg/injection, schedule: Q01DX011 (ip), vehicle: carboxymethylcellulose (CMC)).
Turning to `C1CN1P1(N2CC2)=NP(N2CC2)(N2CC2)=NP(N2CC2)(N2CC2)=NP(N2CC2)(N2CC2)=N1`, the T/C was 48 % of control (dose: 0.4 mg/kg/injection, schedule: Q01DX011 (ip), vehicle: carboxymethylcellulose (CMC)); 96 % of control (dose: 0.4 mg/kg/injection, schedule: Q02DX011 (ip), vehicle: carboxymethylcellulose (CMC)); 22 % of control (dose: 0.8 mg/kg/injection, schedule: Q01DX011 (ip), vehicle: carboxymethylcellulose (CMC)); 54 % of control (dose: 0.8 mg/kg/injection, schedule: Q02DX011 (ip), vehicle: carboxymethylcellulose (CMC)); 45 % of control (dose: 1.5 mg/kg/injection, schedule: Q01DX011 (ip), vehicle: methylcellulose (MC)); 50 % of control (dose: 1.5 mg/kg/injection, schedule: Q02DX006 (ip), vehicle: carboxymethylcellulose (CMC)). In addition, the T/C reads like this: (dose: 1.6 mg/kg/injection, schedule: Q01DX011 (ip), vehicle: carboxymethylcellulose (CMC)) 6 % of control; (dose: 1.6 mg/kg/injection, schedule: Q02DX011 (ip), vehicle: carboxymethylcellulose (CMC)) 31 % of control; (dose: 3.0 mg/kg/injection, schedule: Q01DX011 (ip), vehicle: methylcellulose (MC)) 13 % of control; (dose: 3.0 mg/kg/injection, schedule: Q02DX006 (ip), vehicle: carboxymethylcellulose (CMC)) 10 % of control; (dose: 3.2 mg/kg/injection, schedule: Q02DX011 (ip), vehicle: carboxymethylcellulose (CMC)) 1 % of control; (dose: 6.0 mg/kg/injection, schedule: Q02DX006 (ip), vehicle: carboxymethylcellulose (CMC)) 1 % of control.
`CC(=O)[C@H]1CC[C@H]2[C@@H]3C[C@H](F)C4=CC(=O)CC[C@]4(C)[C@H]3C(=O)C[C@]12C`: the T/C by setting is: (dose: 3.5 mg/kg/injection, schedule: Q01DX011 (sc), vehicle: steriod suspending solution) 82 % of control; (dose: 7.0 mg/kg/injection, schedule: Q01DX011 (sc), vehicle: steriod suspending solution) 66 % of control; (dose: 55.0 mg/kg/injection, schedule: Q01DX011 (sc), vehicle: steriod suspending solution) 15 % of control and 20 % of control; (dose: 110.0 mg/kg/injection, schedule: Q01DX011 (sc), vehicle: steriod suspending solution) 13 % of control and 14 % of control; (dose: 220.0 mg/kg/injection, schedule: Q01DX011 (sc), vehicle: steriod suspending solution) 3 % of control and 8 % of control.
In the case of `O=C(CCCl)N1CCN(c2ccccc2)CC1`, the T/C is 51 % of control (dose: 25.0 mg/kg/injection, schedule: Q01DX011 (ip), vehicle: methylcellulose (MC)); 61 % of control under setting [1]; 60 % of control (dose: 225.0 mg/kg/injection, schedule: Q01DX011 (ip), vehicle: methylcellulose (MC)).
In the case of `O=C1C=C(c2ccccc2)C(=O)C=C1c1ccccc1`, the T/C (dose: 12.5 mg/kg/injection, schedule: Q01DX011 (ip), vehicle: other) is 72 % of control and the T/C (dose: 25.0 mg/kg/injection, schedule: Q01DX011 (ip), vehicle: other) is 48 % of control.
`CCCCn1cnc2c(SCc3ccccc3)nc(N)nc21`: the T/C is 31 % of control (dose: 7.81 mg/kg/injection, schedule: Q01DX011 (ip), vehicle: methylcellulose (MC)); 2 % of control (dose: 15.62 mg/kg/injection, schedule: Q01DX011 (ip), vehicle: methylcellulose (MC)); 1 % of control (dose: 31.25 mg/kg/injection, schedule: Q01DX011 (ip), vehicle: methylcellulose (MC)).
Regarding `Cn1c(=O)c2c(n(C)c1=O)[n+]([O-])c([N+]1([O-])CCOCC1)n2C`, the T/C runs as follows: (dose: 30.0 mg/kg/injection, schedule: Q01DX011 (ip), vehicle: methylcellulose (MC)) 91 % of control; (dose: 60.0 mg/kg/injection, schedule: Q01DX011 (ip), vehicle: methylcellulose (MC)) 100 % of control; (dose: 120.0 mg/kg/injection, schedule: Q01DX011 (ip), vehicle: methylcellulose (MC)) 95 % of control; (dose: 240.0 mg/kg/injection, schedule: Q01DX011 (ip), vehicle: methylcellulose (MC)) 95 % of control.
For the molecule `Ic1ncnc2c1ncn2C1CCCCO1` (configuration not stated), the T/C reads like this: (dose: 5.0 mg/kg/injection, schedule: Q01DX011 (ip), vehicle: other) 123 % of control; (dose: 10.0 mg/kg/injection, schedule: Q01DX011 (ip), vehicle: other) 47 % of control; (dose: 15.0 mg/kg/injection, schedule: Q01DX011 (ip), vehicle: other) 94 % of control; (dose: 20.0 mg/kg/injection, schedule: Q01DX011 (ip), vehicle: other) 68 % of control and 70 % of control; (dose: 30.0 mg/kg/injection, schedule: Q01DX011 (ip), vehicle: other) 100 % of control and 76 % of control; (dose: 31.0 mg/kg/injection, schedule: Q01DX011 (ip), vehicle: other) 14 % of control. In addition, where the note is “dose: 62.0 mg/kg/injection, schedule: Q01DX011 (ip), vehicle: other”, the T/C is 14 % of control.
On to `CC(C)Cn1cnc2c(SCc3ccccc3[N+](=O)[O-])nc(N)nc21`, for which the T/C (dose: 37.5 mg/kg/injection, schedule: Q01DX011 (ip), vehicle: methylcellulose (MC)) is 42 % of control; the T/C under setting [1] was 97 % of control; the T/C (dose: 150.0 mg/kg/injection, schedule: Q01DX011 (ip), vehicle: methylcellulose (MC)) was 62 % of control; the T/C (dose: 300.0 mg/kg/injection, schedule: Q01DX011 (ip), vehicle: methylcellulose (MC)) was 14 % of control.
Take `C=CC(O)CN1CC1=C` (configuration not stated) (tested in a mixture with another compound): the T/C is, setting by setting: (dose: 1.9 mg/kg/injection, schedule: Q01DX011 (ip), vehicle: methylcellulose (MC)) 95 % of control; (dose: 3.75 mg/kg/injection, schedule: Q01DX011 (ip), vehicle: methylcellulose (MC)) 121 % of control; (dose: 7.5 mg/kg/injection, schedule: Q01DX011 (ip), vehicle: methylcellulose (MC)) 106 % of control; (dose: 15.0 mg/kg/injection, schedule: Q01DX011 (ip), vehicle: methylcellulose (MC)) 49 % of control.
Take `[N-]=[N+]=NC1(C(=O)O)CCCC1`: the T/C was 109 % of control (dose: 15.0 mg/kg/injection, schedule: Q01DX011 (ip), vehicle: carboxymethylcellulose (CMC)); 100 % of control (dose: 30.0 mg/kg/injection, schedule: Q01DX011 (ip), vehicle: carboxymethylcellulose (CMC)); 120 % of control (dose: 60.0 mg/kg/injection, schedule: Q01DX011 (ip), vehicle: carboxymethylcellulose (CMC)).
Take `C=C(C)C(=O)OCC1CO1` (configuration not stated): the T/C runs as follows: (dose: 100.0 mg/kg/injection, schedule: Q01DX011 (ip), vehicle: water) 90 % of control; (dose: 200.0 mg/kg/injection, schedule: Q01DX006 (ip), vehicle: water) 95 % of control; (dose: 200.0 mg/kg/injection, schedule: Q01DX011 (ip), vehicle: other) 102 % of control; (dose: 200.0 mg/kg/injection, schedule: Q01DX011 (ip), vehicle: water) 77 % of control; (dose: 300.0 mg/kg/injection, schedule: Q01DX006 (ip), vehicle: water) 86 % of control.
